Marks after values point to notes of the source that are not given here.
How the values were obtained:
[1] = tested on: subjects expected to require daily NSAID therapy; experiment: REDUCE-1 study: adverse events
Text: Randomization was stratified based on aspirin/anticoagulant therapy and prior ulcer history.
Secondary endpoints were UGI ulcers, duodenal ulcers, and serious GI complications

[2] = tested on: subjects who completed REDUCE-1 or REDUCE-2 without ulcer; conditions: human, in vivo, 28 weeks
[3] = tested on: subjects who completed REDUCE-1 or REDUCE-2 without ulcer; experiment: Follow-on safety study (28 weeks) after REDUCE-1 or REDUCE-2: adverse events
[4] = TEAE, follow-on study, Preferred Term
[5] = TEAE, follow-on study, System Organ Class

CC(C)Cc1ccc(C(C)C(=O)O)cc1 (stereo not drawn) [Ibuprofen, 2-(p-isobutylphenyl)propionic acid]
AEs Leading to Discontinuation, Incidence (%) [1]: 7.7%
AEs by Relatedness: Possibly Related, Incidence (%) [1]: 23.1%
AEs by Relatedness: Probably Not Related, Incidence (%) [1]: 38.1%
AEs by Severity: Life Threatening, Incidence (%) [1]: 0.7%
AEs by Severity: Moderate, Incidence (%) [1]: 27.1%
AEs by Severity: Severe, Incidence (%) [1]: 7.0%
Abdominal Pain Upper, Incidence (%) [1]: 4.0%
Any GI Event, Incidence (%) [1]: 27.4* %
Cardiac Disorders, Incidence (%) [1]: 1.3%
Constipation, Incidence (%) [1]: 4.3%
Deaths, Incidence % [1]: 1/0.1%
Diarrhea, Incidence (%) [1]: 4.3%
Dyspepsia, Incidence (%) [1]: 7.7%
General Disorders/Administrative Site Conditions, Incidence (%) [1]: 7.7%
Hepatobiliary Disorders, Incidence (%) [1]: 0.0%
Hypertension, Incidence (%) [1]: 2.3%
Injury, Poisoning, Procedural Complications, Incidence (%) [1]: 6.0%
Investigations, Incidence (%) [1]: 5.0%
Musculoskeletal/connective Tissue Disorders, Incidence (%) [1]: 8.0%
Nausea, Incidence (%) [1]: 4.3%
Nervous System Disorders, Incidence (%) [1]: 7.0%
Renal and Urinary Disorders, Incidence (%) [1]: 1.0%
Respiratory, Thoracic and Mediastinal Disorders, Incidence (%) [1]: 8.7%
SAEs leading to discontinuation, Incidence % [1]: 2/0.7%
Subjects with at least one AE, Incidence (%) [1]: 61.2%
Total SAEs, Incidence % [1]: 13/4.3%
Withdrawals due to GI, Incidence (%) [1]: 5.0%
Viral infection [2]: 2.1 (1) % (n)
AEs Leading to Discontinuation, Incidence (%) ([3]; Follow-on Study): 2.1%
AEs by Relatedness: Possibly Related, Incidence (%) ([3]; Follow-on Study): 8.5%
AEs by Relatedness: Probably Not Related, Incidence (%) ([3]; Follow-on Study): 25.5%
AEs by Severity: Life Threatening, Incidence (%) ([3]; Follow-on Study): 0.0%
AEs by Severity: Mild, Incidence (%) ([3]; Follow-on Study): 10.6%
AEs by Severity: Moderate, Incidence (%) ([3]; Follow-on Study): 19.1%
AEs by Severity: Severe, Incidence (%) ([3]; Follow-on Study): 4.3%
Abdominal Pain Upper, Incidence (%) ([3]; Follow-on Study): 0.0 (0) %
Abdominal Tenderness, Incidence % ([3]; Follow-on Study): 2.1 (0) %
Any GI Event, Incidence (%) ([3]; Follow-on Study): 4.3 (2)* %
Constipation, Incidence (%) ([3]; Follow-on Study): 0.0 (0) %
Deaths, Incidence % ([3]; Follow-on Study): 0.0(0) %
Diarrhea, Incidence (%) ([3]; Follow-on Study): 2.1 (1) %
Dyspepsia, Incidence (%) ([3]; Follow-on Study): 0.0 (0) %
General Disorders/Administrative Site Conditions, Incidence (%) ([3]; Follow-on Study): 4.3(2) %
Hepatobiliary Disorders, Incidence (%) ([3]; Follow-on Study): 2.1(1) %
Hypertension, Incidence (%) ([3]; Follow-on Study): 0.0(0) %
Infections/Infestations, Incidence (%) ([3]; Follow-on Study): 14.9(7) %
Injury, Poisoning, Procedural Complications, Incidence (%) ([3]; Follow-on Study): 4.3(2) %
Metabolism and Nutrition Disorders, Incidence % ([3]; Follow-on Study): 8.5(4)* %
Musculoskeletal/connective Tissue Disorders, Incidence (%) ([3]; Follow-on Study): 2.1(1) %
Nausea, Incidence (%) ([3]; Follow-on Study): 0.0 (0) %
Nervous System Disorders, Incidence (%) ([3]; Follow-on Study): 4.3(2) %
Respiratory, Thoracic and Mediastinal Disorders, Incidence (%) ([3]; Follow-on Study): 2.1(1) %
SAEs leading to discontinuation, Incidence % ([3]; Follow-on Study): 0.0(0) %
Subjects with at least one AE, Incidence (%) ([3]; Follow-on Study): 34.0%
Total SAEs, Incidence % ([3]; Follow-on Study): 4.3(2) %
Withdrawals due to GI, Incidence (%) ([3]; Follow-on Study): 0.0 (0) %
Abdominal discomfort [3, 4]: 2.1 (1) % (n)
Abdominal distension [3, 4]: 0.0 (0) % (n)
Abdominal pain [3, 4]: 2.1 (1) % (n)
Abdominal pain upper [3, 4]: 2.1 (1) % (n)
Abdominal tenderness [3, 4]: 2.1 (1) % (n)
Accidental overdose [3, 4]: 2.1 (1) % (n)
Anaemia [3, 4]: 2.1 (1) % (n)
Animal bite [3, 4]: 0.0 (0) % (n)
Anxiety [3, 4]: 2.1 (1) % (n)
Arthralgia [3, 4]: 4.3 (2) % (n)
Asthma [3, 4]: 0.0 (0) % (n)
Back pain [3, 4]: 0.0 (0) % (n)
Blood creatinine increased [3, 4]: 0.0 (0) % (n)
Blood pressure increased [3, 4]: 0.0 (0) % (n)
Bronchitis [3, 4]: 2.1 (1) % (n)
Bronchitis acute [3, 4]: 2.1 (1) % (n)
Carpal tunnel syndrome [3, 4]: 0.0 (0) % (n)
Cataract [3, 4]: 2.1 (1) % (n)
Cholelithiasis [3, 4]: 2.1 (1) % (n)
Conjunctivitis [3, 4]: 2.1 (1) % (n)
Constipation [3, 4]: 4.3 (2) % (n)
Contusion [3, 4]: 2.1 (1) % (n)
Cough [3, 4]: 0.0 (0) % (n)
Dermatitis [3, 4]: 2.1 (1) % (n)
Dermatitis contact [3, 4]: 2.1 (1) % (n)
Diabetes mellitus [3, 4]: 2.1 (1) % (n)
Diabetes mellitus non-insulin-dependent [3, 4]: 2.1 (1) % (n)
Diarrhoea [3, 4]: 8.5 (4) % (n)
Dizziness [3, 4]: 2.1 (1) % (n)
Dyspepsia [3, 4]: 2.1 (1) % (n)
Ear infection [3, 4]: 2.1 (1) % (n)
Eczema [3, 4]: 2.1 (1) % (n)
Fall [3, 4]: 2.1 (1) % (n)
Flatulence [3, 4]: 2.1 (1) % (n)
Folliculitis [3, 4]: 2.1 (1) % (n)
Foot fracture [3, 4]: 2.1 (1) % (n)
Gait disturbance [3, 4]: 2.1 (1) % (n)
Gastritis [3, 4]: 2.1 (1) % (n)
Gastroenteritis [3, 4]: 0.0 (0) % (n)
Gastroenteritis viral [3, 4]: 4.3 (2) % (n)
Gastrooesophageal reflux disease [3, 4]: 2.1 (1) % (n)
Headache [3, 4]: 0.0 (0) % (n)
Hypercholesterolaemia [3, 4]: 2.1 (1) % (n)
Hyperglycaemia [3, 4]: 2.1 (1) % (n)
Hyperlipidaemia [3, 4]: 2.1 (1) % (n)
Hyperosmolar state [3, 4]: 2.1 (1) % (n)
Hypertension [3, 4]: 2.1 (1) % (n)
Influenza [3, 4]: 2.1 (1) % (n)
Intestinal spasm [3, 4]: 2.1 (1) % (n)
Joint injury [3, 4]: 2.1 (1) % (n)
Joint sprain [3, 4]: 2.1 (1) % (n)
Joint swelling [3, 4]: 2.1 (1) % (n)
Knee deformity [3, 4]: 2.1 (1) % (n)
Laryngitis [3, 4]: 4.3 (2) % (n)
Limb crushing injury [3, 4]: 2.1 (1) % (n)
Lower respiratory tract infection [3, 4]: 4.3 (2) % (n)
Migraine [3, 4]: 2.1 (1) % (n)
Mood swings [3, 4]: 2.1 (1) % (n)
Muscle spasms [3, 4]: 0.0 (0) % (n)
Musculoskeletal pain [3, 4]: 4.3 (2) % (n)
Nasopharyngitis [3, 4]: 2.1 (1) % (n)
Nausea [3, 4]: 4.3 (2) % (n)
Neck injury [3, 4]: 2.1 (1) % (n)
Neck pain [3, 4]: 2.1 (1) % (n)
Nerve compression [3, 4]: 2.1 (1) % (n)
Non-cardiac chest pain [3, 4]: 2.1 (1) % (n)
Oedema peripheral [3, 4]: 6.4 (3) % (n)
Oesophageal stenosis [3, 4]: 2.1 (1) % (n)
Otitis media [3, 4]: 0.0 (0) % (n)
Pharyngolaryngeal pain [3, 4]: 2.1 (1) % (n)
Plantar fasciitis [3, 4]: 2.1 (1) % (n)
Pneumonia [3, 4]: 2.1 (1) % (n)
Rib fracture [3, 4]: 4.3 (2) % (n)
Road traffic accident [3, 4]: 2.1 (1) % (n)
Sinusitis [3, 4]: 2.1 (1) % (n)
Skin laceration [3, 4]: 2.1 (1) % (n)
Stomach discomfort [3, 4]: 0.0 (0) % (n)
Swelling face [3, 4]: 0.0 (0) % (n)
Tendon injury [3, 4]: 0.0 (0) % (n)
Tendonitis [3, 4]: 2.1 (1) % (n)
Throat irritation [3, 4]: 2.1 (1) % (n)
Tinnitus [3, 4]: 2.1 (1) % (n)
Tooth abscess [3, 4]: 0.0 (0) % (n)
Tooth infection [3, 4]: 2.1 (1) % (n)
Toothache [3, 4]: 2.1 (1) % (n)
Traumatic brain injury [3, 4]: 2.1 (1) % (n)
Upper respiratory tract infection [3, 4]: 6.4 (3) % (n)
Urinary tract infection [3, 4]: 0.0 (0) % (n)
Urticaria [3, 4]: 2.1 (1) % (n)
Viral upper respiratory tract infection [3, 4]: 2.1 (1) % (n)
Vomiting [3, 4]: 4.3 (2) % (n)
Wheezing [3, 4]: 0.0 (0) % (n)
Ear and labyrinth disorders [3, 5]: 2.1 (1) % (n)
Eye disorders [3, 5]: 4.3 (2) % (n)
Gastrointestinal disorders [3, 5]: 23.4 (11) % (n)
General disorders and administration site conditions [3, 5]: 6.4 (3) % (n)
Hepatobiliary disorders [3, 5]: 2.1 (1) % (n)
Immune system disorders [3, 5]: 0.0 (0) % (n)
Infections and infestations [3, 5]: 36.2 (17) % (n)
Injury, poisoning and procedural complications [3, 5]: 17.0 (8) % (n)
Investigations [3, 5]: 0.0 (0) % (n)
Metabolism and nutrition disorders [3, 5]: 8.5 (4) % (n)
Neoplasms benign, malignant and unspecified (incl. cysts and polyps) [3, 5]: 0.0 (0) % (n)
Nervous system disorders [3, 5]: 6.4 (3) % (n)
Psychiatric disorders [3, 5]: 4.3 (2) % (n)
Renal and urinary disorders [3, 5]: 0.0 (0) % (n)
Respiratory, thoracic and mediastinal disorders [3, 5]: 4.3 (2) % (n)
Vascular disorders [3, 5]: 2.1 (1) % (n)
Total Subjects With at Least One TEAE ([3]; follow-on study, safety follow-on population, HZT-501 N = 132, Ibuprofen N = 47): 68.1 (32) % (n)

— US20130078287A1 (Horizon Pharma USA, Inc., priority 2010, published 2013)
